Measured values published in patent US20220404336A1, “COMPOSITIONS, METHODS AND USES FOR FREE FATTY ACID SCREENING OF CELLS AT SCALE” (priority 2019, published 2022).
Entries after “also recorded” stand apart in the source; their conditions may differ. Where two headings read alike, the source gives them in different places.

Assays:
[1] = tested on: human pancreatic islet cells; assay: Toxicity against human pancreatic islet cells (C-peptide positive cell count); type: cell-based
Description: (§1) Human pancreatic islets from a deceased donor (Islet Research Resource ID: SAMN15400953) were purchased from the Integrated Islet Distribution program, dissociated, and cultured as described previously ([…] and Wagner. Curr. Protocols in Chem. Biol. 6: 157-168). In brief, 384 well plates (Perkin Elmer, CellCarrier Ultra, #6057300) were coated in ECM 2-3 days before the start of the experiment. HTB-9 cells (ATTC, 5637) were seeded at 10K/well into the 384 well plates and grown to confluence. All culture media was aspirated and 50 ul/well of 20 mM NH4OH in PBS (Sigma) was added. The plates were incubated at 37 C for 6 minutes, after which the NH4OH was pipetted up and down 4-5 times before being aspirated. The wells were then filled with 50 ul/well PBS until seeding with human islets. Human islets were pelleted and dissociated with StemPro Accutase (Life Technologies, A11105-01) at 37 C for 20-25 minutes followed by pipetting to mix 5-7 times. The dissociated islets were resuspended in CMRL 1066 medium (CellGro, cat. no. 15-110-CV) supplemented with 10% FBS, 1× L-glutamine, and 1× penicillin/streptomycin, filtered through a nylon mesh to remove large cell aggregates, and seeded at 10K/well density in the coated 384w plate. These islets were maintained in full CMRL media at 37 C, 95% humidity, and 5% CO2 with media changes every third day. For testing of free fatty acids for toxicity against human pancreatic islet cells (FIG. 8), C2, C3, and C4 free fatty acids were incubated with human pancreatic islet cells at concentrations of 250 μM, 500 μM, and 1 mM for 120 hours with one media change at 72 hours. The islets were subsequently fixed with 3% paraformaldehyde for 20 minutes, permeabilized with 0.2% TritonX-100 for another 20 minutes, and blocked for 3 hours at RT in 2% BSA in PBS (SeraCare, AP-45100-80). The islets were stained with C-peptide antibody (Developmental studies hybridoma bank at University of Iowa) at 1:100 in 2% BSA/PBS overnight rocking at 4 C, washed with PBS three times followed by once with 1% BSA/PBS, and then incubated with 568 Goat anti-rat (Life technologies, A11077) at 1:1000 and Hoechst (Thermo Fisher Scientific) at 1:1000 for one hour at RT. These islets were then imaged with the Operetta CLS High Content Screening System (#HH16000000, Perkin Elmer). The number of C-peptide positive cells in each well was quantified using Harmony software (PerkinElmer) and used as a proxy for cell viability.

MIN6 cells [2] = type: cell-based
Description: For high throughput cell viability assay, cells were seeded in 384 well plates (Perkin Elmer, CellCarrier Ultra, #6057300) and treated for 24, 48 and 72 h with the FFA library. Just before readout, cell nuclei were stained with Hoechst (Thermo Fisher Scientific) for 1 h at 37° C. and imaged with the Opera Phenix High Content Screening System (#HH14000000, Perkin Elmer). Number of counted nuclei was determined with the image analysis software Harmony (PerkinElmer) and used as a proxy for cell viability. For low throughput validation experiments, cells were treated for 48 h with representative FFAs in CellCarrier-384 Ultra Microplates. Caspase 3/7 (Thermo Fisher Scientific, #C10423) activation and propidium iodide (Thermo Fisher Scientific, #P1304MP) staining were used to calculate the fraction of apoptotic cells and dead cells, respectively. Single cells were identified and counted after staining their nuclei with Hoechst. Fluorescence intensities were then measured and the threshold for Caspase 3/7 and propidium iodide positive staining was determined manually. Cell viability was calculated as the fraction of cells that were neither Caspase 3/7 nor propidium iodide positive.

MIN6 cells [3] = assay: ER calcium levels (Fluo4, thapsigargin, FLIPR Tetra); type: cell-based, mouse; details: FFA treatment 24 h, relative to negative control (BSA)
Description: MIN6 cells were plated in 384 well plates (Aurora, Black 384 SQ Well 188 micron Film, #1022-10110) and treated with the FFA library for 24 h prior to readout. Cells were carefully washed three times with HBSS (with calcium, Thermo Fisher Scientific, #14025076) using an automated simultaneous pipettor (analytikjena CyBio® Well vario) and incubated with the fluorescent calcium indicator Fluo4 (2 μM, Life Technologies, #F14202) in DMEM without additions for 1 h at room temperature. Then, cells were washed again in HBSS (with calcium) and incubated for another 30 min at room temperature in DMEM without additions. Just before the readout, cells were washed in final calcium free assay buffer solution (140 mM NaCl, 5 mM Kcl, 10 mM HEPES, 2 mM MgCl2, 10 mM EGTA, 10 mM Glucose) and left with 25 ul assay volume per well. Assay plates were immediately transferred to the FLIPR Tetra® High-Throughput Cellular Screening System. The plate was recorded with a frequency of 1 Hz for 10 min. Baseline was recorded for 30 s before the automated liquid transfer system of the FLIPR added the SERCA inhibitor Thapsigargin (final concentration 10 μM) in calcium free assay buffer. The resulting passive efflux of calcium from the ER induced a transient cytosolic fluorescence signal and the peak amplitudes were used to indirectly quantify ER calcium levels (See Extended Data FIG. 3d). The resulting trajectories were corrected for a pipetting artifact and baseline normalized. Log 2 Fold changes were calculated according to plate location specific negative (BSA) controls. The exclusion of one outlier/FFA/plate (n=5) based on a 3 sigma cutoff was allowed. P-values were calculated with Student's t-test (two-sided) and corrected for multiple testing (Benjamin & Hochberg).

ATF4 and CHOP = assay: Western blot, induction of the UPR; type: cell-based, mouse; details: MIN6 cells, BSA negative control
Description: MIN6 cells were lysed (#9803, Cell Signaling Technology) in the presence of protease inhibitors (#05892791001, Roche) and phosphatase inhibitors (#04906837001, Roche). Protein concentrations were quantified with the Pierce BCA Protein Assay Kit (#23225, Thermo Fisher Scientific). NuPAGE LDS sample buffer (#NP0008, Thermo Fisher Scientific) was added to normalized protein lysates together with NuPAGE reducing agent (#NP0004, Thermo Scientific). Lysates were heated to 95° C. for 5 min prior to SDS-PAGE gel electrophoresis (NuPAGE MES SDS running buffer, Thermo Fisher Scientific, #NP0002). Proteins were transferred to a nitrocellulose membrane (#1704158, BioRad) with the Trans-Blot® Turbo™ Blotting System (#1704155, BioRad) according to the manufacturer's protocol. Membranes were blocked in 5% Nonfat Dry Milk (#9999S, Cell Signaling Technology) in PBS with 0.1% Tween® 20 (PBS-T). Primary antibodies were incubated at 4° C. overnight, secondary antibodies were incubated at room temperature for 1 h. Super Signal West Dura (#34076, Thermo Fisher Scientific) or Super Signal West Pico (#34087, Thermo Fisher Scientific) were used to visualize immunoreactive bands imaged by G:BOX Chemi XT4:BOX-CHEMI-XT4, Syngene). Primary Antibodies used in this study: CPT1A: (Abcam #ab128568), ATF4: (CST #11815), CHOP: (CST #2895).

NF-κB p65/RELA = assay: RELA nuclear translocation, immunofluorescence; type: cell-based, mouse; details: MIN6 cells, 18 hours, BSA negative control
Description: Cells grown on 384 well CellCarrier Ultra microplates (#6057308, PerkinElmer) were fixed 10 min in PBS containing 4% PFA (Electron Microscopy Sciences), permeabilized 15 min in 0.5% Triton X-100 (Sigma-Aldrich), blocked for 1 h in blocking reagent (100 mM Tris HCL pH8; 150 mM NaCL; 5 g/L Blocking Reagent (#11096176001, Roche)) and treated for 1.5 h with primary antibody diluted in blocking reagent (NF-κB p65/RELA, Rabbit monoclonal antibody, 1:200, (#8242, Cell Signaling Technology). Cells were washed three times in PBS and incubated for 0.5 h with fluorescent-labeled secondary antibody in blocking solution (1:500, Alexa Fluor 568 Goat anti-Rabbit IgG, (#A11036, Thermo Fisher Scientific)). Cytoplasmic actin filaments were stained with Phalloidin conjugated with Alexa 647 (1:40, #A22287, Thermo Fisher Scientific) and nuclei were counterstained with Hoechst (1:2000, #H3570, Thermo Fisher Scientific). Cells were washed three times in PBS and imaged using the Opera Phenix High Content Screening System, #HH14000000, Perkin Elmer). A minimum of nine fields was acquired per well using 20× water immersion objectives in a confocal mode. Image analysis was performed using the Harmony software (PerkinElmer). Cell nuclei were first identified using Hoechst staining and nuclear region was defined for each cell. Phalloidin staining was then used to detect and define the cytoplasmic region of the cell. RELA fluorescent intensity was measured separately in the nuclear and cytoplasmic regions and a threshold for a nuclear translocation was defined using negative (BSA) and positive (TNFα) controls. For each well the fraction of cells identified for RELA nuclear translocation was calculated.

[4] = Toxicity against human pancreatic islet cells (C-peptide positive cell count); type: cell-based; details: female, dissociated human pancreatic islet cells; human islet cells, 120 hours; relative to the C3 and tested C4 free fatty acids; read-out: decrease of human pancreatic cell viability
Description: as §1

[5] = MIN6 cells, representative FFAs, 48 h

SMILES | decrease of human pancreatic cell viability [1] | apoptosis (caspase activity) and cell death (propidium iodide positive nuclei); cell viability (MIN6 cells [2]) | ER Ca^2+ levels (peak amplitude after thapsigargin 10 μM) (MIN6 cells [3]) | induction of the UPR (ATF4 and CHOP protein abundance) (ATF4 and CHOP) | nuclear translocation of RELA (p65) (NF-κB p65/RELA) | apoptosis (caspase activity) and cell death (propidium iodide positive nuclei); cell viability (MIN6 cells [2]; [5]) | cytotoxicity at 120 h [4] | human pancreatic cell viability ([1]; human islet cells, 250 μM, 500 μM, 1 mM, 120 hours, relative to C3 FFAs 9Z-octadecenoic acid, 6Z-octadecenoic acid and C4 FFA 10Z-nonadecenoic acid)
CCCCCCCC/C=C\CCCCCCCCCCCCC(=O)O [14Z-tricosenoic acid, 14(Z)-Tricosenoic acid] | more than 50% | – | – | – | – | – | – | –
CCCCCCCC/C=C\CCCCCCCCCCCCCC(=O)O [15Z-tetracosenoic acid, 15(Z)-Tetracosenoic acid] | more than 50% | – | – | – | – | – | – | –
CCCCC/C=C\C/C=C\C/C=C\C/C=C\CCCC(=O)O [AA, 5(Z),8(Z),11(Z),14(Z)-Eicosatetraenoic Acid] | – | trended towards decreased viability | increased | None | – | – | – | –
CCCCCCCC/C=C\CCCCCCCCCCCC(=O)O [EA, 13(Z)-Docosenoic acid] | – | – | significant reduction of ER Ca^2+ levels | upregulation of ATF4 and CHOP protein abundance; also recorded: inducing ATF4 and CHOP | translocated to the nucleus; also recorded: Complete translocation of RELA from the cytosol to the nucleus | consistently induced apoptosis and cell death; also recorded: reduced cell viability | > 50% | decreased human pancreatic cell viability
CCCCC/C=C\C/C=C\C/C=C\CCCCC(=O)O [GLA, gamma-linoleic acid] | – | – | increased | None | – | trended towards decreased viability | – | –
CCCCCCCC/C=C\CCCCCCCC(=O)O [OA, 9(Z)-Octadecenoic acid] | – | not associated with changes in cell viability | near-baseline | None | – | – | – | –
CCCCCCCCCCCCCCCC(=O)O [PA, Hexadecanoic acid] | – | – | significant reduction of ER Ca^2+ levels | upregulation of ATF4 and CHOP protein abundance; also recorded: inducing ATF4 and CHOP | translocated to the nucleus | – | – | –
CCCCCCCCCCC/C=C\CCCCC(=O)O [PSA, petroselenic acid] | – | – | near-baseline | None | moderate RELA translocation to the nucleus | not associated with changes in cell viability | – | –
